{
  "source": "patent US20230103444A1",
  "about": "(The Regents of the University of Colorado, a Body Corporate, priority 2020, published 2023)",
  "key": {"[1]": {"target": "T1, cat-CHD1L ATPase (Homo sapiens, UniProt Q86WJ1)", "T1 construct": "inferred from Ni-NTA / imidazole purification; made in house; host or cells: E. coli Rosetta 2 (DE3) pLysS; constructs were a gift from Helena Berglund, Karolinska Institute", "T1 sequence (Q86WJ1 16-611 limits assumed)": "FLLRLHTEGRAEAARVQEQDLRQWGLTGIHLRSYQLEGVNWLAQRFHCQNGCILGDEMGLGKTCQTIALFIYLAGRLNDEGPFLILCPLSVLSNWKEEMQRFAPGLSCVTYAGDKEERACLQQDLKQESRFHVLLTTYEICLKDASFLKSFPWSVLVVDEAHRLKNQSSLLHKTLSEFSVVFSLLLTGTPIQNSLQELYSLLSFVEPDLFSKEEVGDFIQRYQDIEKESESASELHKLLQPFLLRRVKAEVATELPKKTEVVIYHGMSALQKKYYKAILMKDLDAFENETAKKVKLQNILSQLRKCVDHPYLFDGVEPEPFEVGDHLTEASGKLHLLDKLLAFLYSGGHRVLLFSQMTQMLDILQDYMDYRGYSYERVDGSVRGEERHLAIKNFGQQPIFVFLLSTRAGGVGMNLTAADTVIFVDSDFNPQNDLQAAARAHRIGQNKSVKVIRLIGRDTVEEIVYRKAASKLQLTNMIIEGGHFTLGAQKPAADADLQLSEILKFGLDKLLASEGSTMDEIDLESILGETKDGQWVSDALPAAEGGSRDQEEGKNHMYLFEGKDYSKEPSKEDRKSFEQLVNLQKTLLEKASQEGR", "test": "CHD1L ATPase assay with recombinant catalytic domain (cat-CHD1L)", "format": "biochemical", "conditions": "for inhibition at 20 µM: confirmed HTS hits, HTS at 20 μM, read-out: inhibition against cat-CHD1L ATPase; for IC50: units given with the values (nM, μM), read-out: activity in dose response studies against cat-CHD1L ATPase (IC50, FIG. 1A)", "procedure,_shortened": "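Recombinant cat-CHD1L (100 nM) was incubated with 200 nM c-Myc DNA or mononucleosome in 50 mM Tris pH 7.5, 50 mM NaCl, 1 mM DTT and 5% glycerol, with 10 μM ATP, for 1 h at 37 °C. Background came from no-enzyme wells, with 1% DMSO and 10 mM EDTA as controls.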"}, "[2]": {"test": "Liver toxicity, histological evaluation", "format": "in vivo, athymic nude mice", "set-up": "key to Liver Inflammation score: 0 = none; 1 = minimal; 2 = mild; 3 = moderate; 4 = severe; key to Liver Assessment: N = normal background lesion for mouse strain; A = abnormal", "conditions": "for liver toxicity, in words: 50 mg/kg i.p. QD 5 days", "method": "Two million VimPro-GFP SW620 cells suspended in 100 μL of a 1:1 mixture of Matrigel® matrix (Corning Life Sciences, Corning, N.Y.) and RPMI 1640 were injected into the flanks of 9-week old female athymic nude mice (Nude-Foxn1nu (069)) (Envigo, Huntingdon, Cambridgeshire, UK). Growth was monitored with caliper measurements 3× per week. […] Treatments were administered i.p. QD over five days. Mice were sacrificed 2 h after the final dose on day five of the treatment."}, "[3]": {"test": "Mouse liver microsome stability", "conditions": "CD-1, mouse, liver microsomes; for half-life: female, initial study", "quoted_text": "Microsome stability. CD-1 mouse microsomes were commercially purchased and the reactions were performed as previously described. […] The master mix was pre-incubated at 37° C. for 5 min, then 1 mM NADPH was added to start the microsomal activity reaction and maintained at 37° C. throughout the time course. Reactions were stopped at 0, 5, 15, 30, 45, and 60 min by adding 200 μL acetonitrile and analyzed by mass spectrometry. The appropriate microsome controls were also performed in the same reaction conditions."}},
  "note": "Several values for one entry are separate records, joined by “and”; a condition that tells them apart may be missing. Identical values can stand only once. Entries after “also recorded” stand apart in the source; their conditions may differ.",
  "data": [
    {"smiles": "COc1ccc(-c2nc(S(=O)(=O)c3ccccc3)c(S(C)(=O)=O)o2)cc1", "note": "[Compound 5]", "values": [
      {"measurement": "inhibition at 20 µM", "setting": "[1]", "value": "> 50", "unit": "%"},
      {"measurement": "IC50", "setting": "[1]", "value": "900 to 5000", "unit": "nM"}
    ]},
    {"smiles": "Cc1cc(Nc2ccc(NC(=O)Cc3cccs3)cc2)nc(N2CCCC2)n1", "note": "[Compound 6, N-(4-((6-methyl-2-(pyrrolidin-1-yl)pyrimidin-4-yl)amino)phenyl)-2-(thiophen-2-yl)acetamide]", "values": [
      {"measurement": "Liver Assessment", "setting": "[2]; 50 mg/kg QD 5 days, one line per animal, listed as Compound 6.0", "value": "N (2×) and A (2×)"},
      {"measurement": "Liver Inflammation score", "setting": "[2]; 50 mg/kg QD 5 days, one line per animal, scored if abnormal", "value": 1},
      {"measurement": "liver toxicity, in words", "setting": "[2]", "value": "no evidence of hepatocyte degeneration, necrosis, hyperplasia, or parenchymal inflammation"},
      {"measurement": "liver toxicity, in words", "setting": "[2]; listed as 6.0", "value": "no apparent liver toxicity; also recorded: does not display any liver toxicity"},
      {"measurement": "half-life", "setting": "[3]; Microsomal Half-life (min), female CD-1 mouse microsomes", "value": 17, "unit": "min"},
      {"measurement": "half-life", "setting": "[3]; half-life in liver microsomes", "value": "< 20", "unit": "min"},
      {"measurement": "inhibition at 20 µM", "setting": "[1]", "value": "> 50", "unit": "%"},
      {"measurement": "IC50", "setting": "[1]", "value": "900 to 5000", "unit": "nM"}
    ]},
    {"smiles": "Cc1cc(Nc2ccc(NC(=O)c3c[nH]c4ccccc34)cc2)nc(N2CCCC2)n1", "note": "[Compound 6.3, N-(4-((6-methyl-2-(pyrrolidin-1-yl)pyrimidin-4-yl)amino)phenyl)-1H-indole-3-carboxamide]", "values": [
      {"measurement": "half-life at 10 μM", "setting": "[3]; pH 7.4, in vitro liver microsome half-life, second series, different liver microsome preparation", "value": 98, "unit": "min"}
    ]}
  ]
}
